From patent US20220195533A1, “ARYL HYDROCARBON RECEPTOR (AHR) ACTIVATION SIGNATURE AND METHODS FOR DETERMINING AHR SIGNALING STATUS” (DEUTSCHES KREBSFORSCHUNGSZENTRUM STIFTUNG DES OFFENTLICHEN …, priority 2019, published 2022)

Test system: AHR
Assay: AHR signature gene set testing in tumor tissue of advanced melanoma patients after immune checkpoint inhibition
Format: in vivo, human
Conditions: tumor tissue of advanced melanoma patients after treatment (GSE91061), FIG. 31C
Description: The eBayes adjusted moderated t-statistic was applied for differential gene expression using limma (Ritchie, M E, et al. (2015). limma powers differential expression analyses for RNA-sequencing and microarray studies. Nucleic Acids Research 43(7), e47) and limma-trend (Phipson, B, et al. (2016). Robust hyperparameter estimation protects against hypervariable genes and improves power to detect differential expression. Annals of Applied Statistics 10(2), 946-963) or the limma RNA-seq pipeline (Ritchie, M E, et al. (2015). limma powers differential expression analyses for RNA-sequencing and microarray studies. Nucleic Acids Research 43(7), e47). Batch effects, when present, were accounted for in the linear regression. Gene set testing of AHR activation was performed using roast (Wu, D., et al. (2010). ROAST: rotation gene set tests for complex microarray experiments. Bioinformatics 26, 2176-2182).
Using an AHR signature comprising of all the biomarkers in Table 1, allows the detection of AHR modulation caused by both direct and indirect AHR modulators in a cell type and ligand type independent fashion.

Nivolumab: immune checkpoint inhibition; indirect modulation of AHR through immunotherapy
modulation of AHR detected with AHR signature of all Table 1 biomarkers: indirect modulation of AHR
